Measurements from ChEMBL document CHEMBL3046629, “Fungicidal Activities of 2-Methoxy-2-[2-(benzylideneaminooxymethyl)phenyl]-N-methylacetamide Derivatives” (2002).

Key:
Type in all cases: functional
[1] = test system: Pseudoperonospora cubensis; assay: Fungicidal activity against Pseudoperonospora cubensis assessed as cucumber downy mildew disease control at 500 ppm foliar application 24 hr before inoculation onto the abaxial(treated) surface of leaf by preventive manner
[2] = test system: Pseudoperonospora cubensis; assay: Fungicidal activity against Pseudoperonospora cubensis assessed as cucumber downy mildew disease control at 500 ppm foliar application 24 hr before inoculation onto the adaxial(treated) surface of leaf by preventive manner
Botrytis cinerea [3] = assay: Fungicidal activity against Botryotinia fuckeliana assessed as cucumber gray mold disease control at 500 ppm treated on upper surface of leaf 24 hr before inoculation at 22 +/- 2 degC measured after 3 days by preventive manner
Podosphaera fuliginea [4] = assay: Fungicidal activity against Podosphaera fuliginea assessed as cucumber powdery mildew disease control at 500 ppm treated on upper surface of leaf 24 hr before inoculation at 23 +/- 2 degC measured after 10 days by preventive manner
Botrytis cinerea [5] = assay: Fungicidal activity against Botryotinia fuckeliana assessed as cucumber gray mold disease control at 31.3 ppm treated on upper surface of leaf 24 hr before inoculation at 22 +/- 2 degC measured after 3 days by preventive manner
Podosphaera fuliginea [6] = assay: Fungicidal activity against Podosphaera fuliginea assessed as cucumber powdery mildew disease control at 31.3 ppm treated on upper surface of leaf 24 hr before inoculation at 23 +/- 2 degC measured after 10 days by preventive manner
[7] = test system: Pseudoperonospora cubensis; assay: Fungicidal activity against Pseudoperonospora cubensis assessed as cucumber downy mildew disease control at 125 ppm foliar application 24 hr before inoculation onto the adaxial(treated) surface of leaf by preventive manner
[8] = test system: Pseudoperonospora cubensis; assay: Fungicidal activity against Pseudoperonospora cubensis assessed as cucumber downy mildew disease control at 31.3 ppm foliar application 24 hr before inoculation onto the abaxial(treated) surface of leaf by preventive manner
[9] = test system: Pseudoperonospora cubensis; assay: Fungicidal activity against Pseudoperonospora cubensis assessed as cucumber downy mildew disease control at 7.8 ppm foliar application 24 hr before inoculation onto the adaxial(treated) surface of leaf by preventive manner
Botrytis cinerea [10] = assay: Fungicidal activity against Botryotinia fuckeliana assessed as cucumber gray mold disease control at 7.8 ppm treated on upper surface of leaf 24 hr before inoculation at 22 +/- 2 degC measured after 3 days by preventive manner
Podosphaera fuliginea [11] = assay: Fungicidal activity against Podosphaera fuliginea assessed as cucumber powdery mildew disease control at 7.8 ppm treated on upper surface of leaf 24 hr before inoculation at 23 +/- 2 degC measured after 10 days by preventive manner
[12] = test system: Pseudoperonospora cubensis; assay: Fungicidal activity against Pseudoperonospora cubensis assessed as cucumber downy mildew disease control at 7.8 ppm foliar application 24 hr before inoculation onto the abaxial(treated) surface of leaf by preventive manner
[13] = test system: Pseudoperonospora cubensis; assay: Fungicidal activity against Pseudoperonospora cubensis assessed as cucumber downy mildew disease control at 125 ppm foliar application 24 hr before inoculation onto the abaxial(treated) surface of leaf by preventive manner
[14] = test system: Pseudoperonospora cubensis; assay: Fungicidal activity against Pseudoperonospora cubensis assessed as cucumber downy mildew disease control at 2 ppm foliar application 24 hr after inoculation by curative manner
[15] = test system: Pseudoperonospora cubensis; assay: Fungicidal activity against Pseudoperonospora cubensis assessed as cucumber downy mildew disease control at 7.8 ppm foliar application 24 hr after inoculation by curative manner
[16] = test system: Pseudoperonospora cubensis; assay: Fungicidal activity against Pseudoperonospora cubensis assessed as cucumber downy mildew disease control at 31.3 ppm foliar application 24 hr after inoculation by curative manner
[17] = test system: Pseudoperonospora cubensis; assay: Fungicidal activity against Pseudoperonospora cubensis assessed as cucumber downy mildew disease control at 125 ppm foliar application 24 hr after inoculation by curative manner
[18] = test system: Pseudoperonospora cubensis; assay: Fungicidal activity against Pseudoperonospora cubensis assessed as cucumber downy mildew disease control at 2 ppm foliar application 24 hr before inoculation onto the abaxial(treated) surface of leaf by preventive manner
[19] = test system: Pseudoperonospora cubensis; assay: Fungicidal activity against Pseudoperonospora cubensis assessed as cucumber downy mildew disease control at 2 ppm foliar application 24 hr before inoculation onto the adaxial(treated) surface of leaf by preventive manner
[20] = test system: Pseudoperonospora cubensis; assay: Fungicidal activity against Pseudoperonospora cubensis assessed as cucumber downy mildew disease control at 31.3 ppm foliar application 24 hr before inoculation onto the adaxial(treated) surface of leaf by preventive manner
Botrytis cinerea [21] = assay: Fungicidal activity against Botryotinia fuckeliana assessed as cucumber gray mold disease control at 125 ppm treated on upper surface of leaf 24 hr before inoculation at 22 +/- 2 degC measured after 3 days by preventive manner

Compound | Activity [1] [%] | Activity [2] [%] | Activity (Botrytis cinerea [3]) [%] | Activity (Podosphaera fuliginea [4]) [%] | Activity [9] [%] | Activity (Botrytis cinerea [10]) [%] | Activity (Podosphaera fuliginea [11]) [%] | further results
CNC(=O)C(OC)c1ccccc1CO/N=C(/C)c1ccc(OC)cc1 (racemic) | <90 | 90 | 50 | 90 |  |  |  | 
CNC(=O)C(OC)c1ccccc1CO/N=C(\C)c1ccc(Cl)cc1Cl (racemic) | <90 |  |  |  |  |  |  | Activity (Botrytis cinerea [5]): 50%; Activity (Podosphaera fuliginea [6]): 90%
CNC(=O)C(OC)c1ccccc1CO/N=C(/C)c1ccc(Cl)cc1 (racemic) | <90 |  | 50 |  |  |  |  | Activity [7]: 90%; Activity (Podosphaera fuliginea [6]): 90%
CNC(=O)C(OC)c1ccccc1CO/N=C(\C)c1cc(C)ccc1C (racemic) | <90 | 90 | <50 | 90 |  |  |  | 
CCCCOc1ccc(/C(C)=N/OCc2ccccc2C(OC)C(=O)NC)cc1 (racemic) | <90 | 90 |  |  |  |  |  | Activity (Botrytis cinerea [5]): 50%; Activity (Podosphaera fuliginea [6]): 90%
CNC(=O)C(OC)c1ccccc1CO/N=C(\C)c1ccc(O)cc1 (racemic) | <90 | 90 | <50 | <90 |  |  |  | 
CNC(=O)C(OC)c1ccccc1CO/N=C(\C)c1ccc(Br)cc1 (racemic) |  |  |  |  | 90 | 50 | 90 | Activity [8]: 90%
CNC(=O)C(OC)c1ccccc1CO/N=C(\C)c1cccc(Cl)c1 (racemic) |  |  |  |  | 90 | 50 | 90 | Activity [8]: 90%
CNC(=O)C(OC)c1ccccc1CO/N=C(\C)c1ccccc1Cl (racemic) | <90 | 90 | 50 | 90 |  |  |  | 
CCc1ccc(/C(C)=N/OCc2ccccc2C(OC)C(=O)NC)cc1 (racemic) | 90 |  |  |  | 90 | 50 | 90 | 
CC/C(=N\OCc1ccccc1C(OC)C(=O)NC)c1ccc(Cl)cc1 (racemic) |  |  |  |  | 90 | 50 | 90 | Activity [12]: 90%
CNC(=O)C(OC)c1ccccc1CO/N=C(\C)c1ccc(C)cc1 (racemic) | 90 |  |  |  | 90 | 50 | 90 | 
CNC(=O)C(OC)c1ccccc1CO/N=C(\C)c1ccccc1C(F)(F)F (racemic) | <90 | <90 | <50 | 90 |  |  |  | 
CNC(=O)C(OC)c1ccccc1CO/N=C(/SC)c1ccc(Cl)cc1 (racemic) | 97 | 100 | 50 |  | 100 |  |  | Activity [13]: 64%; Activity [14]: 10%; Activity [15]: 35%; Activity [16]: 60%; Activity [17]: 87%; Activity [18]: 20%; Activity [8]: 50%; Activity [12]: 40%; Activity [19]: 100%; Activity [7]: 100%; Activity [20]: 100%; Activity (Podosphaera fuliginea [6]): 90%
CNC(=O)C(OC)c1ccccc1CO/N=C(/C)c1ccc(C(F)(F)F)cc1 (racemic) | <90 |  | 50 |  |  |  | 90 | Activity [7]: 90%
CNC(=O)C(OC)c1ccccc1CO/N=C(\C)c1ccc([N+](=O)[O-])cc1 (racemic) | <90 | 90 |  | 90 |  |  |  | Activity (Botrytis cinerea [21]): 50%
CNC(=O)C(OC)c1ccccc1CO/N=C(\C)c1cccc(C(F)(F)F)c1 (racemic) | 90 |  |  |  | 90 | 50 | 90 | 
